According to patent publication US7795229B2, “Serum cholesterol lowering agent or preventative or therapeutic agent for atherosclerosis” (Kotobuki Pharmaceutical Co., Ltd., priority 2003, dated 2010):

Row | SMILES | melting point
1 | O=C1[C@H](CC[C@H](O)c2ccccc2)[C@@H](c2ccc(C[C@@H]3O[C@H](CO)[C@@H](O)[C@H](O)[C@H]3O)cc2)N1c1ccccc1 [Compound 41] | 110 to 112 °C
2 | O=C1[C@H](CC[C@H](O)c2ccc(F)cc2)[C@@H](c2ccc(CCCOC[C@@H]3O[C@H](CO)[C@@H](O)[C@H](O)[C@H]3O)cc2)N1c1ccc(F)cc1 [Compound 50] | 61 to 63 °C
3 | Cc1ccc(N2C(=O)[C@H](CC[C@H](O)c3ccc(F)cc3)[C@H]2c2ccc([C@@H]3O[C@H](CO)[C@@H](O)[C@H](O)[C@H]3O)cc2)cc1 [Compound 36] | 79 to 81 °C
4 | O=C1[C@H](CC[C@H](O)c2ccc(F)cc2)[C@@H](c2ccc([C@@H]3O[C@H](CO)[C@@H](O)[C@H](O)[C@H]3O)cc2)N1c1ccc(F)cc1 [Compound 35] | 81 to 83 °C
5 | CCOC(=O)C(C)(C)Oc1ccc(N2C(=O)[C@H](CCCc3ccc(C)cc3)[C@H]2c2ccc(C[C@@H]3O[C@H](CO)[C@@H](O)[C@H](O)[C@H]3O)cc2)cc1 [Compound 20] | 76 to 78 °C
6 | CC(=O)OC[C@H]1O[C@@H](Cc2ccc([C@@H]3[C@@H](CCOc4ccc(F)cc4)C(=O)N3c3ccc(F)cc3)cc2)[C@H](OC(C)=O)[C@@H](OC(C)=O)[C@@H]1OC(C)=O [Compound 13] | 64 to 66 °C
7 | O=C(O)c1ccc(N2C(=O)[C@H](CCC(=O)c3ccc(F)cc3)[C@H]2c2ccc(C[C@@H]3O[C@H](CO)[C@@H](O)[C@H](O)[C@H]3O)cc2)cc1 [Compound 30] | 102 to 104 °C
8 | O=C1[C@H](CC[C@H](O)c2ccc(F)cc2)[C@@H](c2ccc(CCC[C@@H]3O[C@H](CO)[C@@H](O)[C@H](O)[C@H]3O)cc2)N1c1ccc(F)cc1 [Compound 48] | 81 to 83 °C
9 | O=C1[C@H](CC[C@H](O)c2ccc(F)cc2)[C@@H](c2ccc(/C=C/CCC[C@@H]3O[C@H](CO)[C@@H](O)[C@H](O)[C@H]3O)cc2)N1c1ccc(F)cc1 [Compound 54] | 69 to 71 °C
10 | O=C(O)[C@H]1O[C@@H](CCc2ccc([C@@H]3[C@@H](CC[C@H](O)c4ccc(F)cc4)C(=O)N3c3ccccc3)cc2)[C@H](O)[C@@H](O)[C@@H]1O [Compound 58] | 110 to 112 °C
11 | O=C1[C@H](CCCc2ccc(F)cc2)[C@@H](c2ccc(C[C@@H]3O[C@H](CO)[C@@H](O)[C@H](O)[C@H]3O)cc2)N1c1ccccc1 [Compound 9] | 84 to 86 °C
12 | O=C1[C@H](CC[C@H](O)c2ccc(F)cc2)[C@@H](c2ccc(/C=C/[C@@H]3O[C@H](CO)[C@@H](O)[C@H](O)[C@H]3O)cc2)N1c1ccc(F)cc1 [Compound 45] | 84 to 86 °C
13 | O=C(O)c1ccc(N2C(=O)[C@H](CC[C@H](O)c3ccc(F)cc3)[C@H]2c2ccc(C[C@@H]3O[C@H](CO)[C@@H](O)[C@H](O)[C@H]3O)cc2)cc1 [Compound 29] | 148 to 150 °C
14 | O=C(O)[C@H]1O[C@@H](Cc2ccc([C@@H]3[C@@H](CC[C@H](O)c4ccc(F)cc4)C(=O)N3c3ccc(F)cc3)cc2)[C@H](O)[C@@H](O)[C@@H]1O [Compound 33] | 82 to 84 °C
15 | O=C(O)c1ccc(N2C(=O)[C@H](CCCc3ccc(F)cc3)[C@H]2c2ccc(C[C@@H]3O[C@H](CO)[C@@H](O)[C@H](O)[C@H]3O)cc2)cc1 [Compound 31] | 97 to 99 °C
16 | CC(=O)OC[C@H]1O[C@@H](Cc2ccc([C@@H]3[C@@H](CCCc4ccc(F)cc4)C(=O)N3c3ccccc3)cc2)[C@H](OC(C)=O)[C@@H](OC(C)=O)[C@@H]1OC(C)=O [Compound 10] | 60 to 61 °C
17 | COc1ccc(N2C(=O)[C@H](CCCc3ccc(F)cc3)[C@H]2c2ccc(C[C@@H]3O[C@H](COC(C)=O)[C@@H](OC(C)=O)[C@H](OC(C)=O)[C@H]3OC(C)=O)cc2)cc1 [Compound 6] | 60 to 62 °C

Row | SMILES | melting point
18 | CC(C)(Oc1ccc(N2C(=O)[C@H](CCCc3ccc(F)cc3)[C@H]2c2ccc(C[C@@H]3O[C@H](CO)[C@@H](O)[C@H](O)[C@H]3O)cc2)cc1)C(=O)O [Compound 19] | 170 to 172 °C
19 | CCOC(=O)C(C)(C)Oc1ccc(N2C(=O)[C@H](CCCc3ccc(F)cc3)[C@H]2c2ccc(C[C@@H]3O[C@H](CO)[C@@H](O)[C@H](O)[C@H]3O)cc2)cc1 [Compound 18] | 73 to 74 °C
20 | CCOC(=O)c1ccc(N2C(=O)[C@H](CC[C@H](O)c3ccc(F)cc3)[C@H]2c2ccc(C[C@@H]3O[C@H](CO)[C@@H](O)[C@H](O)[C@H]3O)cc2)cc1 [Compound 42] | 56 to 58 °C
21 | O=C1[C@H](CC[C@H](O)c2ccc(F)cc2)[C@@H](c2ccc(C[C@@H]3O[C@H](CO)[C@@H](O)[C@H](O)[C@H]3O)cc2)N1c1ccccc1 [Compound 23] | 104 to 106 °C
22 | O=C(CC[C@H]1C(=O)N(c2ccccc2)[C@@H]1c1ccc(C[C@@H]2O[C@H](CO)[C@@H](O)[C@H](O)[C@H]2O)cc1)c1ccc(F)cc1 [Compound 27] | 104 to 106 °C
23 | O=C1[C@H](CC[C@H](O)c2ccc(F)cc2)[C@@H](c2ccc(CCCC[C@@H]3O[C@H](CO)[C@@H](O)[C@H](O)[C@H]3O)cc2)N1c1ccc(F)cc1 [Compound 53] | 81 to 83 °C
24 | O=C1[C@H](CCCc2ccc(F)cc2)[C@@H](c2ccc(OC[C@@H]3O[C@H](CO)[C@@H](O)[C@H](O)[C@H]3O)cc2)N1Cc1ccccc1 [Compound 16] | 73 to 75 °C
25 | O=C1[C@H](CC[C@H](O)c2ccc([C@H]3O[C@@H](CO)[C@H](O)[C@@H](O)[C@@H]3O)cc2)C(c2ccc(F)cc2)N1c1ccc(F)cc1 (some centres unmarked) [Compound 49] | 111 to 113 °C
26 | CC(=O)OC[C@H]1O[C@@H](Cc2ccc([C@@H]3[C@@H](CCCc4ccc(F)cc4)C(=O)N3c3ccc(F)cc3)cc2)[C@H](OC(C)=O)[C@@H](OC(C)=O)[C@@H]1OC(C)=O [Compound 3] | 56 to 58 °C
27 | O=C1[C@H](CC[C@H](O)c2ccc(F)cc2)[C@@H](c2ccc(/C=C/COC[C@@H]3O[C@H](CO)[C@@H](O)[C@H](O)[C@H]3O)cc2)N1c1ccc(F)cc1 [Compound 51] | 65 to 67 °C
28 | O=C(O)[C@H]1O[C@@H](Cc2ccc([C@@H]3[C@@H](CCCc4ccc(F)cc4)C(=O)N3c3ccc(F)cc3)cc2)[C@H](O)[C@@H](O)[C@@H]1O [Compound 17] | 105 to 106 °C
29 | CC(=O)OC[C@H]1O[C@@H](Cc2ccc([C@@H]3[C@@H](CCCc4ccc(F)cc4)C(=O)N3c3ccc(C)cc3)cc2)[C@H](OC(C)=O)[C@@H](OC(C)=O)[C@@H]1OC(C)=O [Compound 8] | 56 to 58 °C
30 | Cc1ccc(CCC[C@H]2C(=O)N(c3ccc(OC(C)(C)C(=O)O)cc3)[C@@H]2c2ccc(C[C@@H]3O[C@H](CO)[C@@H](O)[C@H](O)[C@H]3O)cc2)cc1 [Compound 21] | 161 to 162 °C
31 | O=C1[C@H](CC[C@H](O)c2ccc(F)cc2)[C@@H](c2ccc(/C=C/C[C@@H]3O[C@H](CO)[C@@H](O)[C@H](O)[C@H]3O)cc2)N1c1ccc(F)cc1 [Compound 47] | 72 to 74 °C
32 | O=C1[C@H](CCCc2ccccc2)[C@@H](c2ccc(C[C@@H]3O[C@H](CO)[C@@H](O)[C@H](O)[C@H]3O)cc2)N1c1ccc(F)cc1 [Compound 11] | 74 to 75 °C
33 | O=C(CC[C@H]1C(=O)N(c2ccc(F)cc2)[C@@H]1c1ccc([C@@H]2O[C@H](CO)[C@@H](O)[C@H](O)[C@H]2O)cc1)c1ccc(F)cc1 [Compound 34] | 83 to 85 °C

Further lines, results first:

Row | melting point | SMILES
34 | 76 to 78 °C | O=C1[C@H](CCCc2ccc(F)cc2)[C@@H](c2ccc(C[C@@H]3O[C@H](CO)[C@@H](O)[C@H](O)[C@H]3O)cc2)N1c1ccc(Cl)cc1 [Compound 4]
35 | 102 to 104 °C | Cc1ccc(N2C(=O)[C@H](CC[C@H](O)c3ccc(F)cc3)[C@H]2c2ccc(C[C@@H]3O[C@H](CO)[C@@H](O)[C@H](O)[C@H]3O)cc2)cc1 [Compound 24]
36 | 110 to 112 °C | O=C1[C@H](CCCc2ccc(F)cc2)[C@@H](c2ccc(C[C@@H]3O[C@H](CO)[C@@H](O)[C@H](O)[C@H]3O)cc2)N1c1ccc(F)cc1 [Compound 2]
37 | 61 to 62 °C | O=C1[C@H](CCCc2ccc(F)cc2)[C@@H](c2ccc(OC[C@@H]3O[C@H](CO)[C@@H](O)[C@H](O)[C@H]3O)cc2)N1c1ccc(F)cc1 [Compound 14]
38 | 73 to 75 °C | COc1ccc(N2C(=O)[C@H](CCCc3ccc(F)cc3)[C@H]2c2ccc(C[C@@H]3O[C@H](CO)[C@@H](O)[C@H](O)[C@H]3O)cc2)cc1 [Compound 5]
39 | 89 to 90 °C | O=C1[C@H](CCCc2ccc(F)cc2)[C@@H](c2ccc(C3O[C@H](CO)[C@@H](O)[C@H](O)[C@H]3O)cc2)N1c1ccc(F)cc1 (some centres unmarked) [Compound 1]
40 | 153 to 155 °C | O=C1[C@H](CC[C@H](O)c2ccc(F)cc2)[C@@H](c2ccc(CC[C@@H]3O[C@H](CO)[C@@H](O)[C@H](O)[C@H]3O)cc2)N1c1ccc(F)cc1 [Compound 46]
41 | 86 to 88 °C | Cc1ccc(N2C(=O)[C@H](CCC(=O)c3ccc(F)cc3)[C@H]2c2ccc(C[C@@H]3O[C@H](CO)[C@@H](O)[C@H](O)[C@H]3O)cc2)cc1 [Compound 28]
42 | 67 to 69 °C | O=C1[C@H](CCCc2ccc(F)cc2)[C@@H](c2ccc(C[C@@H]3O[C@H](CO)[C@@H](O)[C@H](O)[C@H]3O)cc2)N1c1ccc(F)cc1 [Compound 25]
43 | 78 to 80 °C | O=C1[C@H](CCCc2ccc(F)cc2)[C@H](c2ccc(C[C@@H]3O[C@H](CO)[C@@H](O)[C@H](O)[C@H]3O)cc2)N1c1ccc(F)cc1 [Compound 40]
44 | 126 to 128 °C | O=C1[C@H](CC[C@H](O)c2ccc(C[C@@H]3O[C@H](CO)[C@@H](O)[C@H](O)[C@H]3O)cc2)[C@@H](c2ccc(F)cc2)N1c1ccc(F)cc1 [Compound 39]
45 | 80 to 82 °C | Cc1ccc(N2C(=O)[C@H](CCCc3ccc(F)cc3)[C@H]2c2ccc(C[C@@H]3O[C@H](CO)[C@@H](O)[C@H](O)[C@H]3O)cc2)cc1 [Compound 7]
46 | 200 to 201 °C | O=C1[C@H](CC[C@H](O)c2ccc(F)cc2)[C@@H](c2ccc(F)cc2)N1c1ccc(C[C@@H]2O[C@H](CO)[C@@H](O)[C@H](O)[C@H]2O)cc1 [Compound 38]
47 | 65 to 67 °C | O=C1[C@H](CCOc2ccc(F)cc2)[C@@H](c2ccc(C[C@@H]3O[C@H](CO)[C@@H](O)[C@H](O)[C@H]3O)cc2)N1c1ccc(F)cc1 [Compound 12]
